Data reported in publication PMC10791743, “Selective CK1α degraders exert antiproliferative activity against a broad range of human cancer cell lines” (Nature Communications, 2024).
Several values for one entry are separate records, joined by “and”; a condition that tells them apart may be missing. Equal values may be shown once.

Experiments:
[1] = Metabolic stability in cryopreserved hepatocytes, human; format: in vitro ADME; conditions: human, cryopreserved hepatocytes; read-out: Hepatocyte stability t1/2
Description: page 34: UHPLC-MS/MS System: Chromatographic separation was performed on an Acquity UPLC BEH […] with 6500+ Qtrap system. […] software suite. The UPLC column was maintained at 55 °C. Mobile phase A was 0.1% formic acid in MilliQ H2O and Mobile phase B was 0.1% formic acid in acetonitrile. The flow rate was 0.9 […] The mass spectrometer was operated in positive-ion mode with electrospray ionization. MRM transition m/z […] plasma stability and plasma protein binding. The following MS parameters were employed for analyte measurements: ion spray voltage 5 kV, temperature 550 °C, gas 1 and gas 2 were 60, entrance potential (EP): 10 V, declustering potential (DP): 50 V, collision energy (CE): 27 V, and collision cell exit potential (CXP): 16 V. Metabolic Stability in mouse and human cryopreserved hepatocytes. 10 mM test compounds were provided by Compound Sample Group. Diluted 10 mM test compounds and 30 mM positive control compounds (7-ethoxycoumarin) to 1 mM and 3 mM with DMSO in 96-well plates. Diluted 1 mM test compounds and 3 mM positive control compounds to 100 μM and 300 μM dosing solutions with ACN. Cryopreserved cells were thawed, isolated and suspended in Incubation Medium, then diluted with pre-warmed Incubation Medium to 0.5 × 10^6cells/mL. Added 198 μL of pre-warmed cell suspensions in 96 -well plates. Transferred 125 μL of stop solution (acetonitrile containing 200 ng/mL tolbutamide and 200 ng/mL labetalol as internal standards) in a set of pre- labeled 96-well plates. Spike d 2 μL dosing solution to each well of 96 -well plates in duplicates. For T0 Samples, mix ed to achieve a homogenous suspension for about 1 min, then immediately transferred 25 μL of each sample into well containing 125 μL of ice -cold stop solution followed by mixing. Incubated all plates at 37°C in a 95% humidified incubator at 5% CO 2 to start the reactions page 35: with constant shaking at about 600 rpm. At 15, 30, 60 and 90 min, mixed samples and then transferred 25 μL of each sample at each time point to well containing 125 μL of ice -cold stop solution followed by mixing. Medium Control (MC) sample plates (labeled as T0-MC and T90- MC) were prepared at T0 and T90 by adding the same components to each well except cell suspensions. At each corresponding time point, stopped the reactions by removing the plates from incubator and mixing with 125 μL of ice-cold stop solution. Vortexed the plates immediately on a plate shaker at 500 rpm for 10 minutes. Then, centrifuge d all sample plates at 3220 x g for 20 min at 4°C. After centrifugation, 80 μL/well of supernatant in the sample plates were transferred to another set of pre-labeled 96-well plates which containing 240 μL of ultra pure water according to the plate map. Analytical plates were sealed and stored at 4°C until LC-MS/MS analysis. Thawing Medium: Williams' Medium E containing 5% fetal bovine serum and 30% Perc oll solution and other supplements. Incubation Medium: Williams' Medium E (no phenol red) containing 2 mM L-Glutamine and 25 mM HEPES. Stop Solution: Acetonitrile containing 200 ng/mL tolbutamide and labetalol as internal standards. Dilution Solution: Ultra-pure water. The remaining percents of test articles after incubation were calculated by the follow equations: Equation ( 6): Use equation of first order kinetics [NT] […] The data was […] concatenated with a reversed decoy database for evaluating False Discovery Rate (FDR). […]

CK1α = CK1α (Homo sapiens, UniProt P48729+Q96SW2); experiment: In vivo PD: CK1α protein levels in MOLM-13 xenograft (western blot of human cells from bone marrow); parameters: quantified western blots of isolated human cells from the bone marrow of treated mice; endogenous in cells; host or cells: MOLM-13 xenograft cells from NSG mouse bone marrow, murine cells depleted; species or system NSG mice engrafted with MOLM-13 cells; conditions: for CK1a quantified western blot signal, group mean (Mean 2): n 3, DMSO mean 0.9882; for CK1a quantified western blot signal, individual animals: relative to DMSO; for CK1α protein level in vivo: 48 h
Description: For the PD experiment, NSG mice engrafted with MOLM-13 cells were treated for 48 h with SJ3149 or DMSO vehicle in 4 groups: vehicle, 50 mg/kg once per day, or vehicle or 50 mg/kg twice per day (Fig. 6). After 48 h, the mice were sacrificed and human cells were isolated from the collected bone marrow and lysed for western blot analysis.
(§1) For the xenograft transplantation study, female NSG mice (NOD.Cg-Prkdc^scid Il2rg^tm1Wjl/SzJ, Strain #005557, The Jackson Laboratory) aged 6–8 weeks were transplanted with 100,000 MOLM-13 cells by tail-vein injection. 10 days post-transplantation, mice were treated with SJ3149 via intraperitoneal injections for the following 2-day dosing schedule: 50 mg/kg (1 dose every 12 h), and 50 mg/kg (1 dose every 24 h) with n = 3 per group. Control groups (n = 3) were treated with DMSO either 1 dose every 24 h or 1 dose every 12 h with equal volume as treatment groups. Mice were euthanized 48 h after the first treatment and bone marrow cells were collected. Murine cells were depleted using the EasySep Mouse/Human Chimera isolation kit ([…] Technologies #19849). NSG mice were housed in microisolation cages and kept under barrier conditions to keep them specific pathogen-free. The lights for NSG mice are on an automated 12-h on, 12-h off light cycle. The mouse room has a separate thermostat and humidistat to control temperature and humidity at the room level. Sex was not considered beyond female mice being most commonly used for cell line-derived xenografts. Ethical approval by the St. Jude Institutional Animal Care and Use Committee.
as §1, with “Female” for “For the xenograft transplantation study, female”

CK1α, sequence (P48729 whole entry): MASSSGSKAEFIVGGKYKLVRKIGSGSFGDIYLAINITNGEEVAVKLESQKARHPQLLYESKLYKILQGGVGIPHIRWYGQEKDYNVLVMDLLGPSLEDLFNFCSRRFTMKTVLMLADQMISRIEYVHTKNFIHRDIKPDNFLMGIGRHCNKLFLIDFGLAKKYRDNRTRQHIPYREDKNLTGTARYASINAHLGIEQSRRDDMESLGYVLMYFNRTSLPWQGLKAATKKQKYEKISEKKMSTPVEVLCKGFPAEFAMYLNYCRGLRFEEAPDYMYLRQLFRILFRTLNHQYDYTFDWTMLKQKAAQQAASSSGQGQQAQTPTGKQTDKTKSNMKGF
CK1α, sequence (Q96SW2 whole entry): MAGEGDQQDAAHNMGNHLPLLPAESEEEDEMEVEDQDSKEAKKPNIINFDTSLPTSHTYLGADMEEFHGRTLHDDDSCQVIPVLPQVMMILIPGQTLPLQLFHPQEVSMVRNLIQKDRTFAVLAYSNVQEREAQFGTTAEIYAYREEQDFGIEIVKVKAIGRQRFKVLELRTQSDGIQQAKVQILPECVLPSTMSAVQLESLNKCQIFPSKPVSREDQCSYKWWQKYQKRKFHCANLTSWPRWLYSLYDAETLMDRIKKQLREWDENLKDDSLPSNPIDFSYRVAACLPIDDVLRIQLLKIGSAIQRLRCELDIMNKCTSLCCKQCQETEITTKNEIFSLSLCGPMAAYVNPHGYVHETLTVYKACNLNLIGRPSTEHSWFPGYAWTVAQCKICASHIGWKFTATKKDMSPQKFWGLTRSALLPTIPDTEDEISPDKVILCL
CK1α, sequence (Q16531 whole entry partner): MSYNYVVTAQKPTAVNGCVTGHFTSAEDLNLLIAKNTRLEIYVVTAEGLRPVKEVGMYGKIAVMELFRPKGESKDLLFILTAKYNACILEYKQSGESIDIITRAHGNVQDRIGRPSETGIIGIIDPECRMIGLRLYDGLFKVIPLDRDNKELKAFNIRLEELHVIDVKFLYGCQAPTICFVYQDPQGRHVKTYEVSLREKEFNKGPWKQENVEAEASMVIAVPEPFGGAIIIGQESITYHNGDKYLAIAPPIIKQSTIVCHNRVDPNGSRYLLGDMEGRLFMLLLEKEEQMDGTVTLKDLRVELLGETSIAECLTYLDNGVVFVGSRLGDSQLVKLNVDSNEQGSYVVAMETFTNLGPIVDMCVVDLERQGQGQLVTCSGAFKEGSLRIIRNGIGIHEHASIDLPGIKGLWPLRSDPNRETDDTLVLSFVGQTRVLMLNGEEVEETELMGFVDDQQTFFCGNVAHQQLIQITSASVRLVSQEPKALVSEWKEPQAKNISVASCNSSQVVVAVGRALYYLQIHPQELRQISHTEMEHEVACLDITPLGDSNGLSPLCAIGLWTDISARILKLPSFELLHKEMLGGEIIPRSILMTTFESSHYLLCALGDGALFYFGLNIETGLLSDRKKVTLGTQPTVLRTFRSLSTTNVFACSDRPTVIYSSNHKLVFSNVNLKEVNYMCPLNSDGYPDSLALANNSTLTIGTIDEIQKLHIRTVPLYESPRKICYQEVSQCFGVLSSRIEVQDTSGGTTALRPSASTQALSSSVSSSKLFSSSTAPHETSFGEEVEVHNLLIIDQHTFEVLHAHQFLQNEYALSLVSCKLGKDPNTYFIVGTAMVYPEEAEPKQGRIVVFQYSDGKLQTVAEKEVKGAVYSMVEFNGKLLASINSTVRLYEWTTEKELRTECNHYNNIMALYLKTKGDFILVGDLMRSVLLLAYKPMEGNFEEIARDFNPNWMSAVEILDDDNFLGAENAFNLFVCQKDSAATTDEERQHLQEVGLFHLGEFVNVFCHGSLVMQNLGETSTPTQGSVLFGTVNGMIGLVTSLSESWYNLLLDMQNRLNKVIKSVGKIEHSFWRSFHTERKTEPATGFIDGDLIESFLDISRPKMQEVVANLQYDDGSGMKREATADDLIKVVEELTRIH

In the case of `O=C1CCC(N2Cc3cc(Nc4noc5ccccc45)ccc3C2=O)C(=O)N1` (stereo not drawn) [SJ3149], the half-life at 1 µM [1] was greater than 3.6 h, the “CK1a quantified western blot signal, group mean (Mean 2)” value (CK1α; 50 mg/kg 1x/day) was 0.3507 and the “CK1a quantified western blot signal, individual animals” value (CK1α; 50 mg/kg 1x/day) was 0.2018 and 0.4461 and 0.4041. For the same compound, the “CK1a quantified western blot signal, group mean (Mean 2)” value (CK1α; 50 mg/kg 2x/day) was 0.212, the “CK1a quantified western blot signal, individual animals” value (CK1α; 50 mg/kg 2x/day) was 0.07248 and 0.5016 and 0.06191 and the “CK1a quantified western blot signal, group mean (Mean 2)” value (CK1α; 100 mg/kg 1x/day) was 0.4998. The “CK1a quantified western blot signal, individual animals” value (CK1α; 100 mg/kg 1x/day) was 0.1574 and 0.8298 and 0.5123, the “CK1α protein level in vivo” value (CK1α; IP 50 mg/kg once per day) was “significant degradation of CK1α” and the “CK1α protein level in vivo” value (CK1α; IP 50 mg/kg twice per day) was “significant degradation of CK1α”.
